Source: patent US5084450A, “Novel steroids” (Roussel Uclaf, priority 1990, dated 1992)

Key:
[1] = molecular target: T1, specific receptor of progesterone (Oryctolagus cuniculus, UniProt P06186); experiment: Hormonal receptor method: displacement of tritiated product R from rabbit uterus cytosol (relative binding affinity vs progesterone); details: for RBA 2 hours / RBA 24 hours: relative affinity, tritiated product R; for RBA 2 hours: progesterone = 100, incubation at 0° C. for 2 hours; for RBA 24 hours: progesterone = 100, incubation at 0° C. for 24 hours
T1 construct: the uteri were removed and homogenized; from tissue; host or cells: rabbit uterus, cytosol (105,000 g supernatant), estradiol-treated impuberal rabbits
T1 sequence (P06186 1-930): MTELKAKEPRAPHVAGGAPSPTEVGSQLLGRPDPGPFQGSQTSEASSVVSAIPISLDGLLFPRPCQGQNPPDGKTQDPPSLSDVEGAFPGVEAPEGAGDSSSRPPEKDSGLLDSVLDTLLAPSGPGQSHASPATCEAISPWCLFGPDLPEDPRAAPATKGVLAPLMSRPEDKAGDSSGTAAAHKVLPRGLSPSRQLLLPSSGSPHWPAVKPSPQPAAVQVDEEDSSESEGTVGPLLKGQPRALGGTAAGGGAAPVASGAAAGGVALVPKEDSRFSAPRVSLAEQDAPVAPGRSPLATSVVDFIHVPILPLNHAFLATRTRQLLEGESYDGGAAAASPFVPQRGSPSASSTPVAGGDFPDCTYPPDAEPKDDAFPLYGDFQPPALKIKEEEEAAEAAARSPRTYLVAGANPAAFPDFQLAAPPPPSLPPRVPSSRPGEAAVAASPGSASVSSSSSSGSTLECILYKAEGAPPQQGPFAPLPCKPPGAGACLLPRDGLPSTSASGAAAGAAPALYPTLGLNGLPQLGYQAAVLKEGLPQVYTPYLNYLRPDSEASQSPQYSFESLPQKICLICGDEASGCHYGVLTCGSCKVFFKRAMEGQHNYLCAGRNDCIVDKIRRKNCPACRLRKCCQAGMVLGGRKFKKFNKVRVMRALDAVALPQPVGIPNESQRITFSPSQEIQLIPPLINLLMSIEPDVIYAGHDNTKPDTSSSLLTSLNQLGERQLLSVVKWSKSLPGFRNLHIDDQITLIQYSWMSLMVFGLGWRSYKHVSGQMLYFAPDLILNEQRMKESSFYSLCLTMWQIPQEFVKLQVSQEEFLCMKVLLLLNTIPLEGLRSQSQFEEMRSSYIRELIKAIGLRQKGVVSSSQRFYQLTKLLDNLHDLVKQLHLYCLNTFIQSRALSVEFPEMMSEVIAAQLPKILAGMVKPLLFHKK
Description: a) The progestomimetic activity of the products of Examples 1 and 2 was studied by the method of hormonal receptors described by RAYNAUD et al in "J. Ster. BIOCHEM" 1975, Vol. 6, 615 to 622 and in "Physiology and Genetics of Reproduction", 1975 part A p. 143 to 160. The technique was as follows: […] of estradiol were administered to impuberal rabbits per-cutaneously. Five days after this treatment, the animals were killed, the uteri were removed and homogenized in a 10 mM tromethamine, 0.25 M saccharose, HCl pH 7.4 buffer. The homogenate was centrifuged at 105,000 g for one hour and the supernatant liquid or cytosol was adjusted to have a dilution of 1/50 (weight/volume). Tubes with the same volume of cytosol were incubated at 0° C. for two hours with a fixed concentration of tritiated 17,21-dimethyl-19-nor- Δ^4,9 -pregandiene-3,20-dione, called hereafter tritiated product R, in the presence or not of an increasing concentration of radio-inert 17,21-dimethyl-19-nor-Δ^4,9 -pregnadiene-3,20-dione called hereafter cold product R, of progesterone or of product under test. After two hours and after 24 hours, the radioactivity of bound tritiated product R was determined by the technique of absorption with cabon-dextran (1.25%-0.625%).
Then the following was traced: the straight line parallel to the axis of the abscesses, of the coordinate [formula]
Bo being the maximum quantity of bound tritiated product R, measured in the incubate containing only tritiated product R, Bmin being the minimum quantity of bound tritiated product R (non-specific), measured in the incubate containing tritiated product R plus a large excess of cold product R (2500 10^-9 M), the curves representing the percentages of bound tritiated product [formula] as a function of the logarithm of the concentrations of added cold product.
The intersections of the straight line I50 and the curves allowed the values CP and CX to be determined. CP: concentration of cold progesterone which inhibited by 50% the fixing of the tritiated product R. CX: concentration of the product under test which inhibited by 50% the fixing of the tritiated product R.
The relative affinity of the product under test or RBA is given by the formula

impuberal rabbits = experiment: CLAUBERG test (lacy proliferation of the endometrium); assay type: in vivo, rabbit
Description: b) The progestomimetic activity of the product of Example 2 was determined by the CLAUBERG test. According to this test, groups of three impuberal rabbits were sensitized before-hand by the administration of estradiol sub-cutaneously for five days at a daily dose of 5 micrograms. Two days later, they were treated daily for five days with the medicament under study sub-cutaneously.
The product of Example 2 was used in solution in sesame oil containing 5% benzyl alcohol.

SMILES | affinity for the specific receptor of progesterone (conclusion in words) [1] | RBA 2 hours [1] | RBA 24 hours [1] | Mac Phail UNITS (impuberal rabbits; 0.3 μg/rabbit/day sub-cutaneously for five days, estradiol-sensitized impuberal rabbits, sesame oil with 5% benzyl alcohol) [Mac Phail units] | Mac Phail UNITS (impuberal rabbits; 1 μg/rabbit/day sub-cutaneously for five days, estradiol-sensitized impuberal rabbits, sesame oil with 5% benzyl alcohol) [Mac Phail units] | Mac Phail UNITS (impuberal rabbits; 3 μg/rabbit/day sub-cutaneously for five days, estradiol-sensitized impuberal rabbits, sesame oil with 5% benzyl alcohol) [Mac Phail units] | progestomimetic activity (conclusion in words) (impuberal rabbits; CLAUBERG test, sub-cutaneous, impuberal rabbits) | Mac Phail UNITS (impuberal rabbits; daily dose of 10 micrograms, sub-cutaneously, impuberal rabbits) [Mac Phail units]
C[C@]12CC[C@H]3[C@@H](CCC4=CC(=O)CC[C@@H]43)[C@@H]1CC[C@@]21CCCC1=O [Example 1, Spiro (cyclopentane-1,17'β-Δ4'-estrene)-2,3'-dione] | very strong affinity | 312 | 1012 |  |  |  |  | 
C[C@]12CCC3=C4CCC(=O)C=C4CC[C@H]3[C@@H]1CC[C@@]21CCCC1=O [Example 2, spiro (cyclopentane-1,17'β -Δ4,9-estradiene)-2,3'-dione] | very strong affinity | 344 | 912 | 0.5 | 1.8 | 2.8 | very strong progestomimetic activity | 2.8
